The text below walks through data of patent US11013249B2, “Compositions for controlled release of volatile compounds” (University of Guelph, priority 2016, dated 2021).

SMILES strings stand for the structures. In brackets after ≈: the same amount, converted by molar mass.

The conditions of data set [1]: 25° C.; cited from earlier work.
Data set [2] has as its system P. Fluorescens. Briefly: Antimicrobial efficacy of pure CA and PLA-PEO-CA nonwoven. In kind it is cell-based, Pseudomonas fluorescens. To be noted: 25° C. How it is done:
(§1) The antimicrobial activity of PLA-PEO-CA nonwoven was tested on two spoilage microorganisms, P. fluorescens and P. aphanidermatum. One of each freshly inoculated P. fluorescens and P. aphanidermatum petri dishes, with the lid removed, were placed in a one-liter glass jar. A piece of PLA-PEO-CA nonwoven or a certain amount of liquid CA was placed in the middle of the jar without touching the petri dishes and the lid was closed immediately. The jar was incubated at 25° C. The growth of the microorganisms was monitored every 24 h for 4 d.

The next data set concerns Yeast. The data set is described as follows: Inhibitory effects of AITC, diacetyl and cinnamaldehyde vapour. Format: cell-based, yeast isolated from mung bean sprouts. The procedure: (§2) P. fluorescens was selected as a model spoilage bacteria, while mould and yeast were isolated from spoiled mung bean sprouts with bacteria excluded by cultivating in potato dextrose broth (PDB) (Sigma, Oakville, ON, Canada) at pH 5.6±0.2. Yeast and P. fluorescens stocks were cultivated in PDB and trypticase soy broth (TSB) (Bacto, BD, Sparks, USA), respectively, at 30° C. for 24 h and diluted with sterile saline solution (NaCl, 8.5 g/L water) to a concentration of 10^6 CFU/mL. An aliquot of 50 μL of the prepared yeast or bacteria suspension was spread on potato dextrose agar (PDA) (Difco, BD, Sparks, USA) or trypticase soy agar (TSA) (Bacto, BD, Sparks, USA), respectively, in 5 cm diameter petri dishes (Fisher Scientific, Ottawa, ON, Canada). Mycelium of mould was inoculated as one spot at the center of the PDA dishes. Two freshly inoculated petri dishes of same microorganism, with their lids removed, were placed in a one-liter glass jar. […] The growth of the microorganisms was monitored by the colony formation for 3 days.

The subject of the next data set is P. aphanidermatum. Briefly: Antimicrobial efficacy of pure CA and PLA-PEO-CA nonwoven. In kind it is cell-based, Pythium aphanidermatum. To be noted: 25° C. The procedure: as §1
Data set [3] deals with P. Fluorescens. The data set is described as follows: Inhibitory effects of AITC, diacetyl and cinnamaldehyde vapour. Format: cell-based, Pseudomonas fluorescens P33. To be noted: 25° C. The procedure:
as §2

The next data set concerns Mould. The data set is described as above. Format: cell-based, mould isolated from mung bean sprouts. To be noted: 25° C. How it is done:
as §2

Setting [4] is: Amount 2 mg in one-liter jar, 25° C.
Setting [5] is: Amount 5 mg in one-liter jar, 25° C.
Where [6] appears, read: Amount 10 mg in one-liter jar, 25° C.
Setting [7] is: Amount 20 mg in one-liter jar, 25° C.

Turning to `Cc1ccc(C(C)C)c(O)c1` [thymol, Thymol], the vapor pressure in data set [1] is listed as 0.0054 kPa.

On to `O=CC=Cc1ccccc1` [Cinnamaldehyde], for which the “P. Fluorescens Day 1, visual colony number” value with P. Fluorescens [2] (2 mg liquid CA in 1 L jar) is “++ (15-50)”; in the data set with P. Fluorescens [2] (5 mg liquid CA in 1 L jar), “++ (15-50)”; in the data set on P. Fluorescens [2] (10 mg liquid CA in 1 L jar), “+ (less than 15)”. Further, the “P. Fluorescens Day 2, visual colony number” value with P. Fluorescens [2] (2 mg liquid CA in 1 L jar) is listed as “++++ (more than 150)”; with P. Fluorescens [2] (5 mg liquid CA in 1 L jar), “++++ (more than 150)”; in the data set on P. Fluorescens [2] (10 mg liquid CA in 1 L jar), “+++ (50-150)”; with P. Fluorescens [2] (30 mg liquid CA in 1 L jar) it was “+ (less than 15)”. For the same molecule, the “P. Fluorescens Day 3, visual colony number” value was “++++ (more than 150)” with P. Fluorescens [2] (2 mg liquid CA in 1 L jar), “++++ (more than 150)” in the data set with P. Fluorescens [2] (5 mg liquid CA in 1 L jar), “+++ (50-150)” with P. Fluorescens [2] (10 mg liquid CA in 1 L jar) and “+ (less than 15)” with P. Fluorescens [2] (30 mg liquid CA in 1 L jar). In addition, the “P. Fluorescens Day 4, visual colony number” value with P. Fluorescens [2] (2 mg liquid CA in 1 L jar) was “++++ (more than 150)”; with P. Fluorescens [2] (5 mg liquid CA in 1 L jar), “++++ (more than 150)”; in the data set with P. Fluorescens [2] (10 mg liquid CA in 1 L jar), “+++ (50-150)”; in the data set with P. Fluorescens [2] (30 mg liquid CA in 1 L jar), “+ (less than 15)”. The “Yeast day1, visual colony number” value in the data set with Yeast (setting [4]), in the data set on Yeast (setting [5]), in the data set with Yeast (setting [6]) and with Yeast (setting [7]) was “+ (less than 15)” throughout. The “Yeast day2, visual colony number” value in the data set on Yeast (setting [4]), with Yeast (setting [5]), in the data set with Yeast (setting [6]) and in the data set with Yeast (setting [7]) was “+ (less than 15)” in each case. For the same molecule, the “Yeast day3, visual colony number” value with Yeast (setting [4]) is on record as “++ (15-50)”; in the data set with Yeast (setting [5]) it was “+ (less than 15)”; with Yeast (setting [6]), “+ (less than 15)”; in the data set on Yeast (setting [7]) it was “+ (less than 15)”. In addition, the MIC with Yeast (established on yeast, mould and P. fluorescens from Table 8, read-out: minimum inhibition concentration (MIC)) came to 30 µg/mL (≈ 227 µM). For the same molecule, the “effective concentration against yeast” value with Yeast (vapour in one-liter jar, 25° C.) came to 30 mg/L. The “P. aphanidermatum Day 1, colony diameter” value was 1.3 mm with P. aphanidermatum (2 mg liquid CA in 1 L jar), 1 mm with P. aphanidermatum (5 mg liquid CA in 1 L jar), 0.8 mm in the data set on P. aphanidermatum (10 mg liquid CA in 1 L jar) and 0.7 mm in the data set with P. aphanidermatum (30 mg liquid CA in 1 L jar). The “P. aphanidermatum Day 2, colony diameter” value in the data set on P. aphanidermatum (2 mg liquid CA in 1 L jar) was determined as 2.8 mm; in the data set on P. aphanidermatum (5 mg liquid CA in 1 L jar), 2.1 mm; in the data set on P. aphanidermatum (10 mg liquid CA in 1 L jar), 1.6 mm; with P. aphanidermatum (30 mg liquid CA in 1 L jar) it was 1.4 mm. Further, the “P. aphanidermatum Day 3, colony diameter” value in the data set on P. aphanidermatum (2 mg liquid CA in 1 L jar) was 4 mm; in the data set with P. aphanidermatum (5 mg liquid CA in 1 L jar), 2.8 mm; in the data set with P. aphanidermatum (10 mg liquid CA in 1 L jar), 2.2 mm; in the data set on P. aphanidermatum (30 mg liquid CA in 1 L jar), 1.8 mm. Further, the “P. aphanidermatum Day 4, colony diameter” value in the data set on P. aphanidermatum (2 mg liquid CA in 1 L jar) stood at 5 mm; in the data set with P. aphanidermatum (5 mg liquid CA in 1 L jar), 3.5 mm; in the data set on P. aphanidermatum (10 mg liquid CA in 1 L jar), 2.7 mm; with P. aphanidermatum (30 mg liquid CA in 1 L jar) it was 2 mm. Besides, the “P. Fluorescens day1, visual colony number” value in the data set on P. Fluorescens [3] (Amount 2 mg in one-liter jar) was “+++ (50-150)”; with P. Fluorescens [3] (Amount 5 mg in one-liter jar) it was “++ (15-50)”; with P. Fluorescens [3] (Amount 10 mg in one-liter jar) it was “+ (less than 15)”; with P. Fluorescens [3] (Amount 20 mg in one-liter jar), “+ (less than 15)”. Moreover, the “P. Fluorescens day2, visual colony number” value in the data set on P. Fluorescens [3] (Amount 2 mg in one-liter jar) is recorded as “+++ (50-150)”; in the data set on P. Fluorescens [3] (Amount 5 mg in one-liter jar), “++ (15-50)”; with P. Fluorescens [3] (Amount 10 mg in one-liter jar), “+ (less than 15)”; with P. Fluorescens [3] (Amount 20 mg in one-liter jar), “+ (less than 15)”. Moreover, in the data set on P. Fluorescens [3] (vapour in one-liter jar), the “effective concentration against P. fluorescens” value is 30 mg/L. The “Mould day1, visual colony number” value in the data set with Mould (Amount 2 mg in one-liter jar) is “++ (15-50)”; in the data set on Mould (Amount 5 mg in one-liter jar), “+ (less than 15)”; in the data set with Mould (Amount 10 mg in one-liter jar) it was “+ (less than 15)”; in the data set on Mould (Amount 20 mg in one-liter jar), “+ (less than 15)”. Moreover, the “Mould day2, visual colony number” value in the data set with Mould (Amount 2 mg in one-liter jar) is on record as “++ (15-50)”; in the data set with Mould (Amount 5 mg in one-liter jar), “+ (less than 15)”; in the data set on Mould (Amount 10 mg in one-liter jar), “+ (less than 15)”; in the data set on Mould (Amount 20 mg in one-liter jar) it was “+ (less than 15)”. Besides, the “Mould day3, visual colony number” value in the data set with Mould (Amount 2 mg in one-liter jar) is “++ (15-50)”; in the data set with Mould (Amount 5 mg in one-liter jar) it was “+ (less than 15)”; with Mould (Amount 10 mg in one-liter jar), “+ (less than 15)”; with Mould (Amount 20 mg in one-liter jar), “+ (less than 15)”. The “concentration that inhibited the growth of mould for three days” value in the data set on Mould (vapour in one-liter jar) worked out at 30 mg/L.

On to `O=C(O)C=Cc1ccccc1` [cinnamic acid], for which the vapor pressure in data set [1] was 0.0047 mm Hg.
